Assay results taken from patent US6790992B2, “Scyphostatin analogues as SMase inhibitors” (Biofrontera Pharmaceuticals GmbH, priority 2002, dated 2004).

What was measured:
[1] = test system: sphingomyleinase activity of mmLDL-stimulated monocytes; assay: Sphingomyelinase activity in mmLDL-stimulated human monocytes; format: cell-based; conditions: compound 13 0.1-0 μm, 30 min pretreatment, then mmLDL 4 hours; average of 5 experiments; values only in FIG. 4
Description: Average values from 5 individual experiments.
90 nM BODIPY-FL-C5 sphingomylein (molecular probes) are dissolved in 200 μl ethanol, then injected into 10 ml PBS containing 0.75 mg/ml BSA. The solution is dialyzed extensively against PBS, the resulting dialyzate is sterile-filtered and diluted 1:1 using RPMI medium. Together with the solution a monolayer of human monocytes' is incubated with 5% CO2 at 37° C. for 4 hours, washed twice with 5 ml PBS, admixed with new medium and then incubated at the corresponding concentrations of compound (13) for 30 minutes. The pretreated cells are treated with slightly modified low-density lipoprotein (mmLDL)^10 for 4 hours and extracted according to Bligh and Dyer^11. The enzyme activity is determined by the ratio of BODIPY-FL-C5—sphingomyelin to BODIPY-FL-C5 ceramide^12.

[2] = test system: human monocytes; assay: Antiapoptotic activity in TNFα-treated human monocytes (YOPRO-1 staining); format: cell-based; conditions: pretreatment 30 min, 0.1 μm, then TNFα 4 hours; average of 5 experiments; values only in FIG. 3
Description: In addition, part of the cells are pretreated with compound 13 (30 min., 0.1 μm). The percentage of apoptotic cells is determined in all of the samples by YOPRO-1 staining^10. Average values from 5 experiments.

[3] = Chemical, acid and redox stability; format: physicochemical
[4] = background statement, cited from earlier work

CCCCCCCCCCCCCCCC(=O)N[C@H](CO)C[C@]1(O)CCC=CC1=O [compound 13, hexadecanoic acid-[1-hydroxymethyl-2-(1-hydroxy-2-oxo-cyclohex-3-enyl)ethyl]amide]
Inhibitory effect on the sphingomyleinase activity [1]: Inhibitory effect
Antiapoptotic activity (percentage of apoptotic cells) [2]: Antiapoptotic activity
Chemical stability (e.g. stability in acidic solutions) ([3]; epoxide-free analogues, compared with natural scyphostatin): increased chemical stability
Stability at pH 2 ([3]; pH values of 2 at 40° C. for a period of several hours): stable

CC[C@@H](C)/C=C(\C)C[C@@H](C)C[C@@H](C)/C=C/C=C/C=C/C(=O)N[C@H](CO)C[C@@]1(O)C(=O)C=C[C@@H]2O[C@@H]21 [scyphostatin]
Chemical and metabolic stability ([4]; natural scyphostatin): chemically and metabolically very unstable
Stability in acid ([4]; natural substance): unstable in acid
